Test results: PubChem BioAssay (NCI)
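Each compound was tested at five concentrations against cells in 96-well plates for 48 hours. Here, GI50 denotes the concentration required for 50% inhibition of growth. TGI marks complete inhibition of growth.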

Experiments:
Test in all cases: NCI tumour cell line growth inhibition, 48 h
786-0 renal = system: 786-0 renal
A549 NSCLC = system: A549 NSCLC
COLO 205 colon = system: COLO 205 colon
HOP-62 NSCLC = system: HOP-62 NSCLC
HOP-92 NSCLC = system: HOP-92 NSCLC
OVCAR-3 ovarian = system: OVCAR-3 ovarian
SK-MEL-2 melanoma = system: SK-MEL-2 melanoma
TK-10 renal = system: TK-10 renal
U251 CNS = system: U251 CNS
DU-145 prostate = system: DU-145 prostate

| SMILES | GI50 (786-0 renal) [µM] | TGI (786-0 renal) [µM] | GI50 (A549 NSCLC) [µM] | TGI (A549 NSCLC) [µM] | GI50 (COLO 205 colon) [µM] | TGI (COLO 205 colon) [µM] | GI50 (HOP-62 NSCLC) [µM] | TGI (HOP-62 NSCLC) [µM] | GI50 (HOP-92 NSCLC) [nM] | TGI (HOP-92 NSCLC) [µM] | GI50 (OVCAR-3 ovarian) [µM] | TGI (OVCAR-3 ovarian) [µM] | GI50 (SK-MEL-2 melanoma) [µM] | TGI (SK-MEL-2 melanoma) [µM] | GI50 (TK-10 renal) [µM] | TGI (TK-10 renal) [µM] | GI50 (U251 CNS) [µM] | TGI (U251 CNS) [µM] | GI50 (DU-145 prostate) [µM] | TGI (DU-145 prostate) [µM] |
| --- | --- | --- | --- | --- | --- | --- | --- | --- | --- | --- | --- | --- | --- | --- | --- | --- | --- | --- | --- | --- |
| O=S(=O)([O-])[O-].[Cl-].[NH2-].[NH2-].[NH2-].[NH2-].[Ru+3].c1ccc(-c2cccnc2)cc1 | > 100 | > 100 | > 100 | > 100 | > 100 | > 100 | > 100 | > 100 | > 100000 | > 100 | > 100 | > 100 | > 100 | > 100 | > 100 | > 100 | > 100 | > 100 |  |  |
| CCNc1c(C(=O)N(CC)CC)c(=O)[nH]c2ncccc12 |  | > 100 |  | > 100 |  | > 100 |  | > 100 |  | > 100 |  | > 100 |  | > 100 |  | > 100 |  | > 100 |  |  |
| CS(=O)(=O)OCCN1CCN(C(=O)c2cccc3c(Nc4ccc(S(N)(=O)=O)cc4)c4ccccc4nc23)CC1 |  | > 100 |  | > 100 |  | > 82.8 |  | > 100 |  | > 100 |  | > 100 |  | > 100 |  | > 100 |  | > 100 |  |  |
| CCN(CC)c1ccc(N=C2C=CC(=O)c3ncccc32)c(C)c1 |  | 16.6 |  | 26.1 |  | 5.04 |  | 37.2 |  | 19.7 |  | 11.4 |  | 29 |  | 29.8 |  | 19.6 |  |  |
| CC(C)COC(=O)N1N=NC2C3OC(CC3=O)C21 (configuration not stated) |  | > 100 |  |  |  | > 100 |  | > 100 |  | > 100 |  | > 100 |  | > 100 |  | > 100 |  | > 100 |  |  |
| Cn1ccnc1C(c1nccn1C)C(C)(C)[N+](=O)[O-] |  | > 100 |  | > 100 |  | > 100 |  | > 100 |  | > 100 |  | > 100 |  | > 100 |  | > 100 |  | > 100 |  |  |
| CN(C)c1ccc(/C=C/C(=O)C(C)(C)C)cc1Br |  | 59 |  | > 100 |  | 67.2 |  | > 100 |  |  |  | > 100 |  | 36.7 |  | 87.3 |  | > 100 |  |  |
| CN(C)/C=C/c1nnnn1-c1ccc(Cl)cc1 | 14.8 | 56.3 | 30.5 | > 100 | 28.2 | 58.7 | 11.4 | 46.9 |  |  |  |  | 13.2 | > 100 | 25.4 | 80.4 | 6.5 | > 100 | 14.2 | 64.3 |
| O=C1CCC2CCc3cccc4oc1c2c34 (configuration not stated) |  | > 100 |  | > 100 |  | > 100 |  | > 100 |  | 98.6 |  | > 100 |  |  |  | > 100 |  | > 100 |  |  |
| NC(N)=N/N=C/c1c(-c2cccs2)nc2sccn12 | 9.61 | 21.4 | 21.7 | 45.1 |  |  | 11.2 | 23.3 |  |  | 3.66 | 18.1 |  |  |  |  | 15.8 | 33.9 | 13.6 | 26.4 |
| COc1ccccc1/C=C1\CCC(CNc2ccc(Cl)cc2)C1=O (configuration not stated) |  | 22.2 |  | 17 |  | > 32.7 |  | 22.9 |  | 30.6 |  | 22.9 |  | 26.7 |  | 18.6 |  | 23.2 |  |  |
| O=C1c2ccccc2-c2nccc3cc(Cl)nc1c23 | 5.72 | > 100 | 5.15 | > 94.1 |  |  | 2.89 | 18.6 | 1560 | 5.64 | 0.631 | 1.79 | 2.83 | 7.28 | 4.33 | > 100 | 2.43 | 10.4 |  |  |
| CCN(CC)CC(=O)/C=C/c1ccc(C)cc1 |  | 34.4 |  | 60.8 |  | 34.5 |  | > 100 |  | 92.4 |  | 45.1 |  |  |  | 74.8 |  | 30.1 |  |  |
| CC1=C(C)CC2(SC1)C(=O)c1ccccc1C2=O |  | > 100 |  | > 100 |  | > 100 |  | > 100 |  | > 100 |  |  |  | > 100 |  | > 100 |  | > 100 |  |  |
| Oc1ccc2occ3c2c1CCC3 |  | > 100 |  | > 100 |  | > 100 |  | > 100 |  | 80.1 |  | > 100 |  |  |  | > 100 |  | > 100 |  |  |
| C=CCC12CCC(=O)C=C1CCC1(C2)OCCO1 (configuration not stated) |  | > 100 |  | > 100 |  | > 100 |  | > 100 |  |  |  | > 100 |  | > 100 |  | > 100 |  | > 100 |  |  |
| Cc1ccc(C(=O)O/N=C2/CCCCC2CN(C)C)cc1 (configuration not stated) |  | > 100 |  | > 100 |  | > 100 |  | > 100 |  | > 100 |  | > 100 |  | > 100 |  | > 100 |  | > 100 |  |  |
